# Results taken from patent US8192962B2, “Processes for detecting toxic substances” (Daikin Industries, Ltd., priority 2001, dated 2012).
# Test system: Metabolism protein genes
# Test: DNA chip mRNA expression in yeast, metabolism protein genes (Table 7)
# Format: cell-based, Saccharomyces cerevisiae S288C
# Outline: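 First, S288C yeast grown in YPD at 25° C. are dosed in log phase with one toxicant (growth-inhibiting, not lethal) for 2 h. Next, total RNA is extracted and poly(A) mRNA isolated and reverse-transcribed with Cy3/Cy5-dUTP. Finally, whole-genome chip fluorescence is read relative to unexposed cells.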
substance,measurement,setting,value
manganese ethylenebis(dithiocarbamate) [(8)],The level of expressed mRNA in the presence of chemical substance/The level of expressed mRNA in the absence of chemical substance,yeast gene YAL012W,0.7
same,The level of expressed mRNA in the presence of chemical substance/The level of expressed mRNA in the absence of chemical substance,yeast gene YAL038W,1.1
same,level of expressed mRNA in the presence/in the absence of chemical substance,yeast gene YBR003W,0.9
same,level of expressed mRNA in the presence/in the absence of chemical substance,yeast gene YBR011C,1.3
same,level of expressed mRNA in the presence/in the absence of chemical substance,yeast gene YBR020W,1.0
same,The level of expressed mRNA in the presence of chemical substance/The level of expressed mRNA in the absence of chemical substance,yeast gene YBR023C,0.5
same,The level of expressed mRNA in the presence of chemical substance/The level of expressed mRNA in the absence of chemical substance,yeast gene YBR029C,0.7
same,The level of expressed mRNA in the presence of chemical substance/The level of expressed mRNA in the absence of chemical substance,yeast gene YBR183W,1.0
same,The level of expressed mRNA in the presence of chemical substance/The level of expressed mRNA in the absence of chemical substance,yeast gene YBR222C,0.6
same,The level of expressed mRNA in the presence of chemical substance/The level of expressed mRNA in the absence of chemical substance,yeast gene YBR256C,2.3
same,The level of expressed mRNA in the presence of chemical substance/The level of expressed mRNA in the absence of chemical substance,yeast gene YCL009C,1.1
same,The level of expressed mRNA in the presence of chemical substance/The level of expressed mRNA in the absence of chemical substance,yeast gene YCL064C,2.4
same,level of expressed mRNA in the presence/in the absence of chemical substance,yeast gene YCR010C,0.8
same,level of expressed mRNA in the presence/in the absence of chemical substance,yeast gene YCR034W,0.9
same,The level of expressed mRNA in the presence of chemical substance/The level of expressed mRNA in the absence of chemical substance,yeast gene YCR048W,0.8
same,The level of expressed mRNA in the presence of chemical substance/The level of expressed mRNA in the absence of chemical substance,yeast gene YCR098C,1.0
same,The level of expressed mRNA in the presence of chemical substance/The level of expressed mRNA in the absence of chemical substance,yeast gene YDR019C,0.7
same,level of expressed mRNA in the presence/in the absence of chemical substance,yeast gene YDR050C,1.3
same,level of expressed mRNA in the presence/in the absence of chemical substance,yeast gene YDR073W,1.3
same,level of expressed mRNA in the presence/in the absence of chemical substance,yeast gene YDR123C,1.3
same,level of expressed mRNA in the presence/in the absence of chemical substance,yeast gene YDR178W,0.9
same,level of expressed mRNA in the presence/in the absence of chemical substance,yeast gene YDR277C,1.7
same,level of expressed mRNA in the presence/in the absence of chemical substance,yeast gene YDR284C,0.9
same,level of expressed mRNA in the presence/in the absence of chemical substance,yeast gene YDR345C,1.2
same,The level of expressed mRNA in the presence of chemical substance/The level of expressed mRNA in the absence of chemical substance,yeast gene YDR380W,0.2
same,level of expressed mRNA in the presence/in the absence of chemical substance,yeast gene YDR400W,1.4
same,level of expressed mRNA in the presence/in the absence of chemical substance,yeast gene YDR408C,0.7
same,level of expressed mRNA in the presence/in the absence of chemical substance,yeast gene YDR483W,1.0
same,The level of expressed mRNA in the presence of chemical substance/The level of expressed mRNA in the absence of chemical substance,yeast gene YDR497C,0.6
same,The level of expressed mRNA in the presence of chemical substance/The level of expressed mRNA in the absence of chemical substance,yeast gene YDR502C,0.9
same,The level of expressed mRNA in the presence of chemical substance/The level of expressed mRNA in the absence of chemical substance,yeast gene YDR516C,1.3
same,level of expressed mRNA in the presence/in the absence of chemical substance,yeast gene YEL063C,0.6
same,level of expressed mRNA in the presence/in the absence of chemical substance,yeast gene YER015W,1.1
same,The level of expressed mRNA in the presence of chemical substance/The level of expressed mRNA in the absence of chemical substance,yeast gene YER026C,0.8
same,The level of expressed mRNA in the presence of chemical substance/The level of expressed mRNA in the absence of chemical substance,yeast gene YER053C,1.3
same,The level of expressed mRNA in the presence of chemical substance/The level of expressed mRNA in the absence of chemical substance,yeast gene YER069W,1.5
same,level of expressed mRNA in the presence/in the absence of chemical substance,yeast gene YER081W,0.6
same,The level of expressed mRNA in the presence of chemical substance/The level of expressed mRNA in the absence of chemical substance,yeast gene YER096W,1.0
same,level of expressed mRNA in the presence/in the absence of chemical substance,yeast gene YER120W,0.6
same,The level of expressed mRNA in the presence of chemical substance/The level of expressed mRNA in the absence of chemical substance,yeast gene YER178W,0.8
same,level of expressed mRNA in the presence/in the absence of chemical substance,yeast gene YFL011W,0.8
same,The level of expressed mRNA in the presence of chemical substance/The level of expressed mRNA in the absence of chemical substance,yeast gene YFL014W,3.4
same,The level of expressed mRNA in the presence of chemical substance/The level of expressed mRNA in the absence of chemical substance,yeast gene YFL030W,1.6
same,The level of expressed mRNA in the presence of chemical substance/The level of expressed mRNA in the absence of chemical substance,yeast gene YFL031W,0.7
same,The level of expressed mRNA in the presence of chemical substance/The level of expressed mRNA in the absence of chemical substance,yeast gene YFL056C,18.5
same,The level of expressed mRNA in the presence of chemical substance/The level of expressed mRNA in the absence of chemical substance,yeast gene YFL057C,18.0
same,The level of expressed mRNA in the presence of chemical substance/The level of expressed mRNA in the absence of chemical substance,yeast gene YFR047C,1.0
same,level of expressed mRNA in the presence/in the absence of chemical substance,yeast gene YGL012W,0.8
same,The level of expressed mRNA in the presence of chemical substance/The level of expressed mRNA in the absence of chemical substance,yeast gene YGL022W,0.4
same,level of expressed mRNA in the presence/in the absence of chemical substance,yeast gene YGL115W,1.0
same,The level of expressed mRNA in the presence of chemical substance/The level of expressed mRNA in the absence of chemical substance,yeast gene YGL126W,0.7
same,level of expressed mRNA in the presence/in the absence of chemical substance,yeast gene YGL205W,1.2
same,The level of expressed mRNA in the presence of chemical substance/The level of expressed mRNA in the absence of chemical substance,yeast gene YGL209W,1.1
same,The level of expressed mRNA in the presence of chemical substance/The level of expressed mRNA in the absence of chemical substance,yeast gene YGL248W,0.8
same,The level of expressed mRNA in the presence of chemical substance/The level of expressed mRNA in the absence of chemical substance,yeast gene YGR037C,1.4
same,The level of expressed mRNA in the presence of chemical substance/The level of expressed mRNA in the absence of chemical substance,yeast gene YGR055W,1.1
same,level of expressed mRNA in the presence/in the absence of chemical substance,yeast gene YGR096W,1.0
same,level of expressed mRNA in the presence/in the absence of chemical substance,yeast gene YGR191W,0.7
same,The level of expressed mRNA in the presence of chemical substance/The level of expressed mRNA in the absence of chemical substance,yeast gene YGR194C,1.2
same,level of expressed mRNA in the presence/in the absence of chemical substance,yeast gene YGR204W,0.4
same,The level of expressed mRNA in the presence of chemical substance/The level of expressed mRNA in the absence of chemical substance,yeast gene YGR256W,2.2
same,The level of expressed mRNA in the presence of chemical substance/The level of expressed mRNA in the absence of chemical substance,yeast gene YGR282C,1.0
same,level of expressed mRNA in the presence/in the absence of chemical substance,yeast gene YGR288W,1.0
same,level of expressed mRNA in the presence/in the absence of chemical substance,yeast gene YHR025W,0.8
same,The level of expressed mRNA in the presence of chemical substance/The level of expressed mRNA in the absence of chemical substance,yeast gene YHR111W,1.3
same,level of expressed mRNA in the presence/in the absence of chemical substance,yeast gene YHR123W,0.8
same,The level of expressed mRNA in the presence of chemical substance/The level of expressed mRNA in the absence of chemical substance,yeast gene YHR137W,0.4
same,The level of expressed mRNA in the presence of chemical substance/The level of expressed mRNA in the absence of chemical substance,yeast gene YHR174W,1.2
same,The level of expressed mRNA in the presence of chemical substance/The level of expressed mRNA in the absence of chemical substance,yeast gene YHR176W,1.3
same,level of expressed mRNA in the presence/in the absence of chemical substance,yeast gene YHR210C,1.3
same,level of expressed mRNA in the presence/in the absence of chemical substance,yeast gene YIL006W,0.6
same,The level of expressed mRNA in the presence of chemical substance/The level of expressed mRNA in the absence of chemical substance,yeast gene YIL045W,1.1
same,The level of expressed mRNA in the presence of chemical substance/The level of expressed mRNA in the absence of chemical substance,yeast gene YIL107C,1.3
same,The level of expressed mRNA in the presence of chemical substance/The level of expressed mRNA in the absence of chemical substance,yeast gene YIL154C,0.6
same,The level of expressed mRNA in the presence of chemical substance/The level of expressed mRNA in the absence of chemical substance,yeast gene YIL155C,1.0
same,The level of expressed mRNA in the presence of chemical substance/The level of expressed mRNA in the absence of chemical substance,yeast gene YIR034C,1.7
same,The level of expressed mRNA in the presence of chemical substance/The level of expressed mRNA in the absence of chemical substance,yeast gene YIR036C,1.0
same,The level of expressed mRNA in the presence of chemical substance/The level of expressed mRNA in the absence of chemical substance,yeast gene YJL031C,1.8
same,The level of expressed mRNA in the presence of chemical substance/The level of expressed mRNA in the absence of chemical substance,yeast gene YJL068C,1.1
same,The level of expressed mRNA in the presence of chemical substance/The level of expressed mRNA in the absence of chemical substance,yeast gene YJL088W,1.3
same,The level of expressed mRNA in the presence of chemical substance/The level of expressed mRNA in the absence of chemical substance,yeast gene YJL099W,1.0
same,level of expressed mRNA in the presence/in the absence of chemical substance,yeast gene YJL121C,1.0
same,level of expressed mRNA in the presence/in the absence of chemical substance,yeast gene YJL167W,1.5
same,The level of expressed mRNA in the presence of chemical substance/The level of expressed mRNA in the absence of chemical substance,yeast gene YJL172W,0.7
same,level of expressed mRNA in the presence/in the absence of chemical substance,yeast gene YJL216C,1.9
same,The level of expressed mRNA in the presence of chemical substance/The level of expressed mRNA in the absence of chemical substance,yeast gene YJL219W,1.5
same,level of expressed mRNA in the presence/in the absence of chemical substance,yeast gene YJR077C,0.8
same,The level of expressed mRNA in the presence of chemical substance/The level of expressed mRNA in the absence of chemical substance,yeast gene YJR137C,1.6
same,level of expressed mRNA in the presence/in the absence of chemical substance,yeast gene YJR143C,0.7
same,The level of expressed mRNA in the presence of chemical substance/The level of expressed mRNA in the absence of chemical substance,yeast gene YJR148W,0.6
